From the NIST ThermoML archive (doi:10.1016/j.fluid.2010.01.023)
Several values for one entry are separate records, joined by “and”; a condition that tells them apart may be missing. Identical values can stand only once. Numbers after ± are expanded uncertainties.

Assay: xn = mol fraction of the nth substance listed
Settings: Fluid (supercritical or subcritical phases), quasistatic thermogram and barogram, x2 = 0.7393

N [ammonia] + O
Settings	thermal pressure coefficient
330.88 K, Mass density=540.25 kg/m3	7 ± 1 kPa/K
349.52 K, Mass density=540.25 kg/m3	12 ± 1 kPa/K
366.71 K, Mass density=540.25 kg/m3	17 ± 1 kPa/K
397.73 K, Mass density=540.25 kg/m3	32 ± 1 kPa/K
402.59 K, Mass density=671.23 kg/m3	30 ± 1 kPa/K
407.37 K, Mass density=649.65 kg/m3	37 ± 1 kPa/K
407.57 K, Mass density=649.65 kg/m3	37 ± 1 kPa/K
407.79 K, Mass density=649.65 kg/m3	40 ± 1 kPa/K
421.43 K, Mass density=540.25 kg/m3	43 ± 1 kPa/K
446.89 K, Mass density=540.25 kg/m3	58 ± 1 kPa/K
473.33 K, Mass density=540.25 kg/m3	77 ± 1 kPa/K
478.28 K, Mass density=671.23 kg/m3	86 ± 1 kPa/K
485.04 K, Mass density=671.23 kg/m3	86 ± 1 kPa/K
492.71 K, Mass density=671.23 kg/m3	87 ± 1 kPa/K
494.07 K, Mass density=540.25 kg/m3	97 ± 1 kPa/K
498.62 K, Mass density=671.23 kg/m3	97 ± 1 kPa/K
507.04 K, Mass density=671.23 kg/m3	118 ± 1 kPa/K
508.36 K, Mass density=671.23 kg/m3	941 ± 42 kPa/K
509.3 K, Mass density=649.65 kg/m3	106 ± 34 kPa/K
509.3 K, Mass density=671.23 kg/m3	935 ± 35 kPa/K
513.52 K, Mass density=671.23 kg/m3	976 ± 37 kPa/K
514.53 K, Mass density=649.65 kg/m3	119 ± 35 kPa/K
516.77 K, Mass density=540.25 kg/m3	116 ± 1 kPa/K
517.23 K, Mass density=540.25 kg/m3	119 ± 1 kPa/K
519.21 K, Mass density=649.65 kg/m3	137 ± 5 kPa/K
519.86 K, Mass density=649.65 kg/m3	896 ± 5 kPa/K
520.05 K, Mass density=649.65 kg/m3	897 ± 5 kPa/K
520.42 K, Mass density=649.65 kg/m3	899 ± 5 kPa/K
521.54 K, Mass density=649.65 kg/m3	899 ± 12 kPa/K
527.01 K, Mass density=649.65 kg/m3	915 ± 13 kPa/K
527.03 K, Mass density=456.58 kg/m3	125 ± 1 kPa/K
530.51 K, Mass density=552.58 kg/m3	130 ± 1 kPa/K
530.67 K, Mass density=594.32 kg/m3	131 ± 5 kPa/K
530.98 K, Mass density=476.25 kg/m3	129 ± 1 kPa/K
534.1 K, Mass density=594.32 kg/m3	139 ± 1 kPa/K
536.84 K, Mass density=540.25 kg/m3	135 ± 1 kPa/K
537.29 K, Mass density=540.25 kg/m3	135 ± 1 kPa/K
539.15 K, Mass density=594.32 kg/m3	145 ± 1 kPa/K
539.88 K, Mass density=552.58 kg/m3	138 ± 1 kPa/K
540.06 K, Mass density=476.25 kg/m3	137 ± 1 kPa/K
540.79 K, Mass density=476.25 kg/m3	137 ± 1 kPa/K
541.46 K, Mass density=594.32 kg/m3	152 ± 1 kPa/K
541.53 K, Mass density=456.58 kg/m3	139 ± 1 kPa/K
542.16 K, Mass density=594.32 kg/m3	153 ± 1 kPa/K
544.61 K, Mass density=594.32 kg/m3	158 ± 1 kPa/K
545.26 K, Mass density=594.32 kg/m3	161 ± 39 kPa/K
546.16 K, Mass density=594.32 kg/m3	744 ± 72 kPa/K
546.26 K, Mass density=594.32 kg/m3	736 ± 15 kPa/K
548.44 K, Mass density=476.25 kg/m3	146 ± 1 kPa/K
549.77 K, Mass density=594.32 kg/m3	742 ± 11 kPa/K
550.79 K, Mass density=552.58 kg/m3	152 ± 8 kPa/K
551.43 K, Mass density=552.58 kg/m3	154 ± 8 kPa/K
552.99 K, Mass density=456.58 kg/m3	160 ± 1 kPa/K
553.25 K, Mass density=456.58 kg/m3	154 ± 1 kPa/K
553.7 K, Mass density=376.89 kg/m3	161 ± 1 kPa/K
554.5 K, Mass density=552.58 kg/m3	156 ± 1 kPa/K
555.04 K, Mass density=552.58 kg/m3	159 ± 1 kPa/K
556.55 K, Mass density=540.25 kg/m3	159 ± 1 kPa/K
556.9 K, Mass density=456.58 kg/m3	158 ± 1 kPa/K
558.82 K, Mass density=552.58 kg/m3	167 ± 1 kPa/K
559.36 K, Mass density=476.25 kg/m3	160 ± 1 kPa/K
560.44 K, Mass density=552.58 kg/m3	171 ± 1 kPa/K
562 K, Mass density=552.58 kg/m3	654 ± 51 kPa/K
562.66 K, Mass density=540.25 kg/m3	177 ± 29 kPa/K
563.63 K, Mass density=342.18 kg/m3	162 ± 1 kPa/K
563.98 K, Mass density=540.25 kg/m3	181 ± 7 kPa/K
564.69 K, Mass density=540.25 kg/m3	185 ± 8 kPa/K
565.22 K, Mass density=540.25 kg/m3	186 ± 3 kPa/K
565.31 K, Mass density=540.25 kg/m3	187 ± 3 kPa/K
566.19 K, Mass density=540.25 kg/m3	611 ± 5 kPa/K
566.98 K, Mass density=540.25 kg/m3	606 ± 5 kPa/K
568.48 K, Mass density=456.58 kg/m3	174 ± 1 kPa/K
570.03 K, Mass density=476.25 kg/m3	179 ± 7 kPa/K
570.81 K, Mass density=476.25 kg/m3	182 ± 4 kPa/K
571.02 K, Mass density=376.89 kg/m3	175 ± 1 kPa/K
571.35 K, Mass density=476.25 kg/m3	183 ± 4 kPa/K
571.99 K, Mass density=456.58 kg/m3	187 ± 1 kPa/K
572.95 K, Mass density=540.25 kg/m3	618 ± 5 kPa/K
574.99 K, Mass density=476.25 kg/m3	191 ± 4 kPa/K
575.79 K, Mass density=476.25 kg/m3	191 ± 6 kPa/K
575.93 K, Mass density=120.03 kg/m3	148 ± 4 kPa/K
576.8 K, Mass density=147.43 kg/m3	154 ± 5 kPa/K
578.55 K, Mass density=456.58 kg/m3	197 ± 1 kPa/K
578.75 K, Mass density=540.25 kg/m3	632 ± 5 kPa/K
579.5 K, Mass density=476.25 kg/m3	198 ± 8 kPa/K
579.85 K, Mass density=456.58 kg/m3	204 ± 1 kPa/K
580.18 K, Mass density=476.25 kg/m3	203 kPa/K and 452 kPa/K
580.65 K, Mass density=476.25 kg/m3	456 ± 6 kPa/K
580.9 K, Mass density=329 kg/m3	185 ± 6 kPa/K
581.27 K, Mass density=476.25 kg/m3	457 ± 3 kPa/K
581.59 K, Mass density=342.18 kg/m3	192 ± 1 kPa/K
581.68 K, Mass density=320.33 kg/m3	186 ± 6 kPa/K
581.77 K, Mass density=456.58 kg/m3	198 ± 8 kPa/K
582.01 K, Mass density=120.03 kg/m3	155 ± 5 kPa/K
582.45 K, Mass density=308.35 kg/m3	190 ± 6 kPa/K
582.46 K, Mass density=307.35 kg/m3	190 ± 6 kPa/K
582.55 K, Mass density=312.91 kg/m3	189 ± 6 kPa/K
582.99 K, Mass density=540.25 kg/m3	639 ± 3 kPa/K
583.68 K, Mass density=456.58 kg/m3	203 ± 9 kPa/K
583.77 K, Mass density=160.07 kg/m3	168 ± 5 kPa/K
584.72 K, Mass density=456.58 kg/m3	202 ± 7 kPa/K
584.81 K, Mass density=120.03 kg/m3	155 ± 5 kPa/K
584.88 K, Mass density=476.25 kg/m3	473 ± 3 kPa/K
584.95 K, Mass density=456.58 kg/m3	206 kPa/K and 410 kPa/K
585.31 K, Mass density=120.03 kg/m3	154 kPa/K and 128 kPa/K
585.68 K, Mass density=147.43 kg/m3	166 ± 5 kPa/K
586.08 K, Mass density=120.03 kg/m3	100 ± 4 kPa/K
586.37 K, Mass density=120.03 kg/m3	96 ± 3 kPa/K
587.24 K, Mass density=456.58 kg/m3	416 ± 2 kPa/K
589.66 K, Mass density=305.44 kg/m3	194 ± 6 kPa/K
590.01 K, Mass density=297.6 kg/m3	191 ± 6 kPa/K
590.09 K, Mass density=303.47 kg/m3	191 ± 6 kPa/K
590.18 K, Mass density=342.18 kg/m3	198 ± 1 kPa/K
590.18 K, Mass density=376.89 kg/m3	201 ± 1 kPa/K
590.7 K, Mass density=309.95 kg/m3	203 ± 6 kPa/K
591.04 K, Mass density=308.35 kg/m3	200 ± 6 kPa/K
591.13 K, Mass density=301.94 kg/m3	196 ± 6 kPa/K
591.13 K, Mass density=329 kg/m3	194 ± 6 kPa/K
591.32 K, Mass density=376.89 kg/m3	202 ± 1 kPa/K
591.47 K, Mass density=160.07 kg/m3	177 ± 5 kPa/K
591.47 K, Mass density=299.79 kg/m3	190 ± 6 kPa/K
591.47 K, Mass density=320.33 kg/m3	199 ± 6 kPa/K
591.73 K, Mass density=376.89 kg/m3	202 ± 1 kPa/K
592.08 K, Mass density=312.91 kg/m3	191 ± 6 kPa/K
592.42 K, Mass density=147.43 kg/m3	176 ± 5 kPa/K
592.68 K, Mass density=307.35 kg/m3	194 ± 6 kPa/K
592.94 K, Mass density=188.05 kg/m3	184 ± 6 kPa/K
593.2 K, Mass density=147.43 kg/m3	175 ± 5 kPa/K
593.54 K, Mass density=311.19 kg/m3	197 ± 6 kPa/K
593.89 K, Mass density=147.43 kg/m3	148 ± 5 kPa/K
594.06 K, Mass density=376.89 kg/m3	206 ± 2 kPa/K
594.14 K, Mass density=147.43 kg/m3	168 kPa/K and 141 kPa/K
